According to US9833497B2, “Human originated EGF domain proteins and use of the same” (CHENGDU SOURCEBIO LIMITED-LIABILITY COMPANY, priority 2013, dated 2017):

Key:
Format in all cases: cell-based
E. coli DH5α = test: Antibacterial activity: MIC and growth curve against E. coli DH5α in 96-well plate; conditions: minimal inhibitory concentration against E. coli DH5α; 96-well plate, 5×10^5 CFU/mL, 37° C., judged after 8 h
How it was run: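 MIC taken as lowest protein level with no bacterial growth, tracked by A600 every 30 min during 37 °C, 175 rpm culture. Two-fold protein series 50-12.5 μg/mL final, triplicate wells, against 5×10^5 CFU/mL of LB-washed mid-log cells.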

E. coli BL21 = test: MIC against Gram-negative bacteria: E. coli BL21; conditions: for MIC (μg/mL) E. coli BL21 / MIC against E. coli BL21: 5×10^5 CFU/mL; for MIC against E. coli BL21: 96-well plate, 37° C., 10 h
How it was run: (§1)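 MIC, the lowest recombinant protein concentration giving no bacterial growth, found by two-fold serial dilution of human EGF-domain proteins in triplicate. Inoculum 5×10^5 CFU/mL in LB from cultures at McFarland 0.5; plates incubated at 37° C, 175 rpm shaking.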

Pseudomonas aeruginosa = test: MIC against Gram-negative bacteria: Pseudomonas aeruginosa; conditions: for MIC (μg/mL) P. aeruginosa / MIC against P. aeruginosa: 5×10^5 CFU/mL; for MIC against P. aeruginosa: 96-well plate, 37° C., 10 h
How it was run: as §1

Klebsiella pneumonia = test: MIC against Gram-negative bacteria: Klebsiella pneumonia; conditions: for MIC (μg/mL) K. pneumonia / MIC against K. pneumonia: 5×10^5 CFU/mL; for MIC against K. pneumonia: 96-well plate, 37° C., 10 h
How it was run: as §1

Enterobacter cloacae = test: MIC against Gram-negative bacteria: Enterobacter cloacae; conditions: for MIC (μg/mL) E. cloacae / MIC against E. cloacae: 5×10^5 CFU/mL; for MIC against E. cloacae: 96-well plate, 37° C., 10 h
How it was run: as §1

Aeromonas hydrophila = test: MIC against Gram-negative bacteria: Aeromonas hydrophila; conditions: for MIC (μg/mL) A. hydrophila / MIC against A. hydrophila: 5×10^5 CFU/mL; for MIC against A. hydrophila: 96-well plate, 37° C., 10 h
How it was run: as §1

Citrobacter diversus = test: MIC against Gram-negative bacteria: Citrobacter diversus; conditions: for MIC (μg/mL) C. diversus / MIC against C. diversus: 5×10^5 CFU/mL; for MIC against C. diversus: 96-well plate, 37° C., 10 h
How it was run: as §1

Moraxella catarrhalis = test: MIC against Gram-negative bacteria: Moraxella catarrhalis; conditions: for MIC (μg/mL) M. catarrhalis / MIC against M. catarrhalis: 5×10^5 CFU/mL; for MIC against M. catarrhalis: 96-well plate, 37° C., 10 h
How it was run: as §1

Proteus mirabilis = test: MIC against Gram-negative bacteria: Proteus mirabilis; conditions: for MIC (μg/mL) P. mirabilis / MIC against P. mirabilis: 5×10^5 CFU/mL; for MIC against P. mirabilis: 96-well plate, 37° C., 10 h
How it was run: as §1

Proteus vulgaris = test: MIC against Gram-negative bacteria: Proteus vulgaris; conditions: for MIC (μg/mL) P. vulgaris / MIC against P. vulgaris: 5×10^5 CFU/mL; for MIC against P. vulgaris: 96-well plate, 37° C., 10 h
How it was run: as §1

Serratia marcescens = test: MIC against Gram-negative bacteria: Serratia marcescens; conditions: for MIC (μg/mL) S. marcescens / MIC against S. marcescens: 5×10^5 CFU/mL; for MIC against S. marcescens: 96-well plate, 37° C., 10 h
How it was run: as §1

[1] = E. coli BL21, 10 h cultivation at 37° C.
[2] = P. aeruginosa, 10 h cultivation at 37° C.
[3] = K. pneumonia, 10 h cultivation at 37° C.
[4] = E. cloacae, 10 h cultivation at 37° C.
[5] = A. hydrophila, 10 h cultivation at 37° C.
[6] = C. diversus, 10 h cultivation at 37° C.
[7] = M. catarrhalis, 10 h cultivation at 37° C.
[8] = P. mirabilis, 10 h cultivation at 37° C.
[9] = P. vulgaris, 10 h cultivation at 37° C.
[10] = S. marcescens, 10 h cultivation at 37° C.

For “PRT213 (QNCTKTPCLPNAKCEIRNGIEACYCNMGFSGNGVTICE; listed as Homo sapiens)”, the MIC (E. coli DH5α) was 12.5 µg/mL, the “MIC (μg/mL) E. coli BL21” value (E. coli BL21; [1]) was 12.5 µg/mL and the “MIC (μg/mL) P. aeruginosa” value (Pseudomonas aeruginosa; [2]) was 12.5 µg/mL. For the same substance, the “MIC (μg/mL) K. pneumonia” value (Klebsiella pneumonia; [3]) was 12.5 µg/mL, the “MIC (μg/mL) E. cloacae” value (Enterobacter cloacae; [4]) was 50 µg/mL and the “MIC (μg/mL) A. hydrophila” value (Aeromonas hydrophila; [5]) was 12.5 µg/mL. For the same substance, the “MIC (μg/mL) C. diversus” value (Citrobacter diversus; [6]) was 50 µg/mL, the “MIC (μg/mL) M. catarrhalis” value (Moraxella catarrhalis; [7]) was 12.5 µg/mL and the “MIC (μg/mL) P. mirabilis” value (Proteus mirabilis; [8]) was 25 µg/mL. The “MIC (μg/mL) P. vulgaris” value (Proteus vulgaris; [9]) was 50 µg/mL and the “MIC (μg/mL) S. marcescens” value (Serratia marcescens; [10]) was 25 µg/mL.

In the case of “PRT766 (GKDQCAEGGHGCQHQCVNAWAMFHCTCNPGYKLAADNKSCL; listed as Homo sapiens)”, the MIC (E. coli DH5α) is reported as 25 µg/mL, the “MIC (μg/mL) E. coli BL21” value (E. coli BL21; [1]) is reported as 50 µg/mL and the “MIC (μg/mL) P. aeruginosa” value (Pseudomonas aeruginosa; [2]) is reported as 25 µg/mL. For the same substance, the “MIC (μg/mL) K. pneumonia” value (Klebsiella pneumonia; [3]) was 12.5 µg/mL, the “MIC (μg/mL) E. cloacae” value (Enterobacter cloacae; [4]) was 50 µg/mL and the “MIC (μg/mL) A. hydrophila” value (Aeromonas hydrophila; [5]) was 25 µg/mL. The “MIC (μg/mL) C. diversus” value (Citrobacter diversus; [6]) was 12.5 µg/mL, the “MIC (μg/mL) M. catarrhalis” value (Moraxella catarrhalis; [7]) was 25 µg/mL and the “MIC (μg/mL) P. mirabilis” value (Proteus mirabilis; [8]) was 50 µg/mL. The “MIC (μg/mL) P. vulgaris” value (Proteus vulgaris; [9]) was 25 µg/mL and the “MIC (μg/mL) S. marcescens” value (Serratia marcescens; [10]) was 12.5 µg/mL.

Work on “PRT908 (LDNACLTNPCRNGGTCDLLTLTEYKCRCPPGWSGKSCQ; listed as Homo sapiens)” yielded an MIC (E. coli DH5α) of 50 µg/mL, an MIC (E. coli BL21; [1]) of 12.5 µg/mL and an MIC (Pseudomonas aeruginosa; [2]) of 25 µg/mL. For the same substance, the MIC (Klebsiella pneumonia; [3]) was 50 µg/mL, the MIC (Enterobacter cloacae; [4]) was 100 µg/mL and the MIC (Aeromonas hydrophila; [5]) was 25 µg/mL. It also gave an MIC (Citrobacter diversus; [6]) of 50 µg/mL, an MIC (Moraxella catarrhalis; [7]) of 12.5 µg/mL and an MIC (Proteus mirabilis; [8]) of 25 µg/mL. It also gave an MIC (Proteus vulgaris; [9]) of 25 µg/mL and an MIC (Serratia marcescens; [10]) of 25 µg/mL.

For “PRT1260 (DINECLVNNGGCDHFCRNTVGSFECGCRKGYKLLTDERTCQ; listed as Homo sapiens)”, the MIC (E. coli DH5α) was 25 µg/mL, the “MIC against E. coli BL21” value (E. coli BL21; E. coli BL21) was 50 µg/mL and the “MIC against P. aeruginosa” value (Pseudomonas aeruginosa; Pseudomonas aeruginosa) was 25 µg/mL. For the same substance, the “MIC against K. pneumonia” value (Klebsiella pneumonia; Klebsiella pneumonia) was 12.5 µg/mL, the “MIC against E. cloacae” value (Enterobacter cloacae; Enterobacter cloacae) was 25 µg/mL and the “MIC against A. hydrophila” value (Aeromonas hydrophila; Aeromonas hydrophila) was 50 µg/mL. The “MIC against C. diversus” value (Citrobacter diversus; Citrobacter diversus) was 12.5 µg/mL, the “MIC against M. catarrhalis” value (Moraxella catarrhalis; Moraxella catarrhalis) was 50 µg/mL and the “MIC against P. mirabilis” value (Proteus mirabilis; Proteus mirabilis) was 12.5 µg/mL. For the same substance, the “MIC against P. vulgaris” value (Proteus vulgaris; Proteus vulgaris) was 50 µg/mL and the “MIC against S. marcescens” value (Serratia marcescens; Serratia marcescens) was 25 µg/mL.

For “PRT556 (CQCSSPGVADDRCDPDTGQCRCRVGFEGATCDRCAPGYFHFPLCQL; listed as Homo sapiens)”, the MIC (E. coli DH5α) was 25 µg/mL, the “MIC against E. coli BL21” value (E. coli BL21) was 50 µg/mL and the “MIC against P. aeruginosa” value (Pseudomonas aeruginosa) was 12.5 µg/mL. For the same substance, the “MIC against K. pneumonia” value (Klebsiella pneumonia) was 50 µg/mL, the “MIC against E. cloacae” value (Enterobacter cloacae) was 12.5 µg/mL and the “MIC against A. hydrophila” value (Aeromonas hydrophila) was 50 µg/mL. The “MIC against C. diversus” value (Citrobacter diversus) was 25 µg/mL, the “MIC against M. catarrhalis” value (Moraxella catarrhalis) was 12.5 µg/mL and the “MIC against P. mirabilis” value (Proteus mirabilis) was 25 µg/mL. The “MIC against P. vulgaris” value (Proteus vulgaris) was 12.5 µg/mL and the “MIC against S. marcescens” value (Serratia marcescens) was 25 µg/mL.
